{"source": "patent US4931270A", "about": "“Method for detecting dopaminergic diseases using fluorine-18 radiolabelled D2 dopamine receptor ligands” (Nelson Research & Development, priority 1988, dated 1990)", "key": {"D2 -dopamine": {"molecular_target": "T1, D2 -dopamine (Bos taurus, UniProt P20288)", "T1 construct": "Membranes derived from bovine striatum (for assaying dopamine receptors); from tissue; host or cells: bovine striatum membranes", "T1 sequence (P20288 whole entry)": "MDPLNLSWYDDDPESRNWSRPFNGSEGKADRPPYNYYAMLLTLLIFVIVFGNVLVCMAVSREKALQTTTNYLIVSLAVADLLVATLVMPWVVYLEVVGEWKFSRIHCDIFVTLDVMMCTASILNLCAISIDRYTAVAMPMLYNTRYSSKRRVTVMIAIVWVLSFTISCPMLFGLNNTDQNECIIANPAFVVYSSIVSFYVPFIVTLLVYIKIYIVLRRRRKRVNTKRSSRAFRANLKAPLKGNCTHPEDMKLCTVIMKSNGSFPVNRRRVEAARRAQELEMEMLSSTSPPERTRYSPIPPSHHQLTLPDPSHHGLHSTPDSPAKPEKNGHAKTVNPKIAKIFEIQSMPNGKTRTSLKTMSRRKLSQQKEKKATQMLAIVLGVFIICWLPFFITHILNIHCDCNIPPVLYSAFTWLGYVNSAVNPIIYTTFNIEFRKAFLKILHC", "experiment": "Radioligand binding (displacement of 3H-N-0437), bovine striatal membranes", "procedure": "(§1) The selectivity of 2-[N-3-fluoropropyl-N-2-(2 thienyl)ethylamine]-5-hydroxytetralin has been investigated using radioligand binding assays to determine the binding affinity at different receptor types, namely D1 and D2 dopamine and α-adrenergicreceptor sites.\n(§2) Membranes derived from bovine striatum (for assaying dopamine receptors) and rat cerebral cortex (for assaying α-adrenergic receptors) were prepared as follows. The tissue was homogenized using a tissue disrupter and centrifuged. The pellet was washed by resuspension and centrifugation. The bovine striatal membranes were […] and thawed just prior to use.\nThe radioligands ^3 H-prazosin, H^3 [((R)-(+)-8 chloro-2, 3, 4, 5-tetrahydro-3-methyl-5-phenyl-H-3-benzazepin-7-ol](^3 H-SCH23390), and H^3 [5-hydroxy-2-(N-n-propyl-N-2-[2-thienyl]ethylamino)tetralin] (^3 H-N-0437) were used to label α-adrenegic, D1 -dopamine and D2 -dopamine receptors, respectively. Increasing concentrations of 2-[N-3-fluoropropyl-N-2-(2-thienyl)ethylamine]-5-hydroxy-tetralin were used to displace the binding of these radioligands from their respective receptors. Competition binding curves were hand drawn to fit the data, and IC50 values were determined graphically. The IC50 value indicates the concentration of test drug required to displace from attachment at the receptor site of interst 50 percent of the ligands of known affinity already in attachment there."}, "α-adrenergic": {"molecular_target": "α-adrenergic", "experiment": "Radioligand binding (displacement of 3H-prazosin), rat cerebral cortex membranes", "procedure": "as §1\nas §2, with “use. […]” for “use.”"}, "D1 -dopamine": {"molecular_target": "T2, D1 -dopamine (Bos taurus, UniProt Q95136)", "T2 construct": "Membranes derived from bovine striatum (for assaying dopamine receptors); from tissue; host or cells: bovine striatum membranes", "T2 sequence (Q95136 whole entry)": "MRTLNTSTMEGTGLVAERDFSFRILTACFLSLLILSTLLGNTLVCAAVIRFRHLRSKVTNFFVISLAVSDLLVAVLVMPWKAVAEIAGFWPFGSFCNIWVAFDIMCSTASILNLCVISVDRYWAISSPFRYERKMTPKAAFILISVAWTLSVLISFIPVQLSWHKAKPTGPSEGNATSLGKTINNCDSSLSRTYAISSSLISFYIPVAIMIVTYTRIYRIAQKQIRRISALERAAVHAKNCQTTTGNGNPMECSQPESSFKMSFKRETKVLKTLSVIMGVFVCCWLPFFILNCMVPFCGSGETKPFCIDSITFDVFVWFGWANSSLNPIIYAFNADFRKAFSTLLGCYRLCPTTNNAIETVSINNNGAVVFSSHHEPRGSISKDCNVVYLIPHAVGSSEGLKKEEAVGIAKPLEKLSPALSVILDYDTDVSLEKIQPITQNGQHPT", "experiment": "Radioligand binding (displacement of 3H-SCH23390), bovine striatal membranes", "conditions": "bovine striatum membranes", "procedure": "as §1\nas §2, with “use. […]” for “use.”"}}}
{"compound": "Oc1cccc2c1CCC(N(CCCF)CCc1cccs1)C2", "note": "(stereo not drawn) [2-[N-3-Fluoropropyl-N-2-(2-thienyl)ethylamino]-5-hydroxytetralin]", "values": [{"measurement": "affinity for dopamine D2 receptor sites (in words)", "setting": "D2 -dopamine", "value": "unexpectedly high affinity"}, {"measurement": "IC50", "setting": "D2 -dopamine; D2 -dopamine, 3H-N-0437, bovine striatum membranes", "value": "0.00103 ± 0.00049", "unit": "µM"}, {"measurement": "times more potent in binding to D2 -dopamine receptors than to α-adrenergic receptors", "setting": "D2 -dopamine; D2 versus α-adrenergic", "value": "more than 5000 times"}, {"measurement": "selectivity for D2 -dopamine receptors (in words)", "setting": "D2 -dopamine; versus D1 and α-adrenergic", "value": "selective for D2 -dopamine receptors"}, {"measurement": "IC50", "setting": "α-adrenergic", "value": 5.7, "unit": "µM"}, {"measurement": "IC50", "setting": "D1 -dopamine", "value": "> 10", "unit": "µM"}]}
